Values of other authors, collected in US11413271B2, “Oral eliglustat transmucosal delivery system” (ABON PHARMACEUTICALS LLC., priority 2018, dated 2022).

CCCCCCCC(=O)N[C@H](CN1CCCC1)[C@H](O)c1ccc2c(c1)OCCO2 [eliglustat]
Bioavailability in EMs (estimated) (CYP2D6 extensive metabolizers): about 4.17% | Increase of systemic exposure (AUC0-12) at steady state compared to after the first dose (AUC0-∞) (multiple oral doses of 84 mg twice daily in EMs): up to 2 fold
